ChEMBL document CHEMBL3751757, “Three-component, one-pot synthesis of benzo[6,7]cyclohepta[1,2-b]pyridine derivatives under catalyst free conditions and evaluation of their anti-inflammatory activity” (Bioorg Med Chem Lett, 2016)

Experiments:
THP-1 [1] = assay: Anti-inflammatory activity in human THP1 cells assessed as inhibition of PMA-induced MCP-1 production after 48 hrs by ELISA; assay type: functional, cell-based; settings: THP-1, 48 h
THP-1 [2] = assay: Anti-inflammatory activity in human THP1 cells assessed as inhibition of PMA-induced IL-1beta production after 48 hrs by ELISA; assay type: functional, cell-based; settings: THP-1, 48 h
[3] = Cytotoxicity against human THP1 cells assessed as cell viability at 20 uM after 48 hrs by trypan blue dye exclusion assay; assay type: functional; settings: THP-1, 48 h, read-out: Activity

| SMILES | IC50 (THP-1 [1]) | IC50 (THP-1 [2]) | viability at 20 µM [3] |
| --- | --- | --- | --- |
| CCOC(=O)c1cc2c(nc1C)-c1cc(C)c(C)cc1CCC2 | 8.5 µM | 6.5 µM | 95.9% |
| CC1(C)CC(=O)c2cc3c(nc2C1)-c1ccccc1CCC3 | 5.6 µM | > 20 µM | 98.2% |
| CC(=O)c1cc2c(nc1C)-c1cc(C)c(C)cc1CCC2 | 14.8 µM | > 20 µM | 97.6% |
| COC(=O)c1cc2c(nc1C)-c1cc(C)c(C)cc1CCC2 | 16 µM | 8.6 µM | 98.3% |
| O=C(c1ccccc1)c1cc2c(nc1-c1ccccc1)-c1ccccc1CCC2 | > 20 µM | 17.5 µM | 99.4% |
| O=C1CCCc2nc3c(cc21)CCCc1ccccc1-3 | > 20 µM | > 20 µM | 96.8% |
| CCOC(=O)c1cc2c(nc1-c1ccccc1)-c1ccccc1CCC2 | > 20 µM | > 20 µM | 103% |
| Cc1cc2c(cc1C)-c1nc3c(cc1CCC2)C(=O)CCC3 | > 20 µM | > 20 µM | 97.1% |
| CCOC(=O)c1cc2c(nc1-c1ccccc1)-c1cc(C)c(C)cc1CCC2 | 8.5 µM | 18.2 µM | 97.6% |
| Cc1cc2c(cc1C)-c1nc3c(cc1CCC2)C(=O)CC(C)(C)C3 | > 20 µM | > 20 µM | 105% |
| COC(=O)c1cc2c(nc1C)-c1ccccc1CCC2 | > 20 µM | 8.2 µM | 97.2% |
| Cc1cc2c(cc1C)-c1nc(-c3ccccc3)c(C(=O)c3ccccc3)cc1CCC2 | > 20 µM | > 20 µM | 101% |
| CCOC(=O)c1cc2c(nc1C)-c1ccccc1CCC2 | > 20 µM | 6.9 µM | 99.2% |
| CC(=O)c1cc2c(nc1C)-c1ccccc1CCC2 | > 20 µM | > 20 µM | 92.3% |
| CN1C(C(=O)Nc2ccccn2)=C(O)c2ccccc2S1(=O)=O [PIROXICAM] |  | 18.1 µM | 98.1% |
